Tests used:
Format in all cases: binding
[1] = tested on: monoclonal antibody (IgG); test: SPR screen, monoclonal antibody
Description: (§1) The screening procedure was based on in vitro screening using two independent in solution analytical techniques relying on saturation difference transfer NMR (STD NMR) and Surface Plasmon Resonace (SPR) methods.
(§2) In the SPR screen 53 compounds were tested (non-soluble substances were excluded) for affinity towards a monoclonal antibody and a commercially available Fc-fragment. Analysis data were corrected for the different molecular weights and are presented as percentage of the theoretical maximal response.
(§3) In order to select potential candidates for further investigations SPR data were arranged in such a way that all substances with a response higher than 10% for both Fc fragment and IgG were selected as potential candidates. These compounds were compared with the ones indicated by the NMR-screening. It turned out that most of the SPR derived hits had been rejected in NMR screen due to unspecific binding towards α-amylase.
(§4) Further structures (commercially available compounds) surrounding compound I were investigated in solution in order to optimize the affinity ligand candidate. These compounds were subject to a corresponding SPR and NMR analysis for affinity as was presented above. However this time only the Fc-fragment was used in the NMR screening while the SPR analysis was performed with the corresponding test proteins as in the first selection.

[2] = tested on: Fc-fragment; test: SPR screen, Fc-fragment
Description: as §1, §2, §3, §4

[3] = tested on: two different monoclonal antibodies (MAbs) and a commercially available Fc-fragment; test: STD NMR screening for affinity towards IgG related proteins
Description: as §1
In the NMR screen 69 substances were tested for affinity towards two different monoclonal antibodies (MAbs) and a commercially available Fc-fragment. Unspecific protein binding was investigated by testing for affinity towards α-amylase. Compounds that were found having affinity towards all three IgG related proteins, but no affinity towards α-amylase were assigned as potential candidates for affinity ligands towards the Fc-part of IgG.
as §4

CCOC(=O)c1c[nH]c2ncnn2c1=O [Compound II]
ranking for affinity towards IgG molecule as indicated by SPR ([1]; second selection): high ranking | ranking for affinity towards Fc-fragment by SPR ([2]; second selection): at least medium ranking | NMR affinity ([3]; second selection, only the Fc-fragment used in the NMR screening): positive by NMR

CC(=O)Nc1nc2[nH]c(C)c(Cc3ccccc3)c(=O)n2n1 [Compound I]
SPR response, percentage of the theoretical maximal response ([1]; IgG (monoclonal antibody), corrected for molecular weight): higher than 10% | SPR response, percentage of the theoretical maximal response ([2]; Fc fragment, corrected for molecular weight): higher than 10% | outcome of NMR screen (affinity towards all three IgG related proteins, no affinity towards α-amylase) ([3]; STD NMR, two MAbs and Fc-fragment): selected as potential affinity candidate by both methods

From patent US7625838B2, “[1, 2, 4] Triazolo [1, 5-A] pyrimidine derivatives as chromatographic adsorbent for the selective adsorption of IGG” (GE Healthcare Bio-Sciences AB, priority 2005, dated 2009)
